In patent US20180104174A1, “Cosmetic Use of a Diospyros Mespiliformis Extract Alone or in Combination with Other Active Agents Such as an Anti-Pollutant” (Laboratoires Clarins, priority 2015, published 2018):

Columns and labels:
Type in all cases: cell-based
[1] = tested on: mitochondrial reactive oxygen species (ROSs) in normal human keratinocytes; assay: Mitoread AntiOx mtROS: mitochondrial ROS production after H2O2 stress
Excerpt: The objective of this study is the characterization of the antioxidant property of a Sanicula europea extract by evaluating the parameters of the redox state after induction of an oxidative stress by hydrogen peroxide (H2O2) in primary cultures of normal human keratinocytes. The Mitosafe® technology makes it possible to explore the antioxidant effects of active agents at the mitochondrial level. This technology consists of the integrated study of mitochondrial functions in living cells by multiplexed measurement of parameters such as cell viability, production of cell and mitochondrial oxygen free radicals, evaluation of antioxidant defenses. These tests in 96-well plates are carried out on primary cultures of human epidermal cells. The Mitoread AntiOx mtROS methodology consists of the quantification of the antioxidant activity of the ingredients toward mitochondrial reactive oxygen species (ROSs) using a fluorescent label. The cells were pre-incubated at 37° C. for 60 minutes with the reference antioxidant, resveratrol 1 μM, or the active ingredients at the predetermined concentrations. Next, they were incubated with the fluorescent probe at 37° C. for 30 minutes, as a replacement for the antioxidant compounds. […] The mitochrondrial ROS production was immediately recorded for 60 minutes. The fluorescence is recorded every five minutes using a microplate reader (Varioskan-Thermo). […]

[2] = tested on: cell superoxide dismutase (SOD) in normal human keratinocytes; assay: Mitoread RedOx c/mtSOD: cell SOD activity after H2O2 stress
Excerpt: (§1) The objective of this study is the characterization of the antioxidant property of a Sanicula europea extract by evaluating the parameters of the redox state after induction of an oxidative stress by hydrogen peroxide (H2O2) in primary cultures of normal human keratinocytes. The Mitosafe® technology makes it possible to explore the antioxidant effects of active agents at the mitochondrial level. This technology consists of the integrated study of mitochondrial functions in living cells by multiplexed measurement of parameters such as cell viability, production of cell and mitochondrial oxygen free radicals, evaluation of antioxidant defenses. These tests in 96-well plates are carried out on primary cultures of human epidermal cells. The Mitoread RedOx c/mtSOD methodology consists of the quantification of the cell and mitochondrial SOD activities. The cells were pre-incubated at 37° C. for 60 minutes with the reference antioxidant, resveratrol at 1 μM, or the active ingredients at the predetermined concentrations. The cells were treated with the reference pro-oxidizing compound, hydrogen peroxide H2O2 at 100 μM for 60 minutes. Immediately after, the cell extracts were prepared and stored at −80° C. The enzymatic activities were measured by means of a fluorometric and enzymatic method using a microplate reader (Varioskan-Thermo). All the extracts were tested in triplicate.

[3] = tested on: mitochondrial superoxide dismutase (SOD) in normal human keratinocytes; assay: Mitoread RedOx c/mtSOD: mitochondrial SOD activity after H2O2 stress
Excerpt: as §1

[4] = tested on: total glutathione (GSH+GSSG) in normal human keratinocytes; assay: Mitoread RedOx GSHtot: total glutathione level after H2O2 stress
Excerpt: as §1, with “RedOx GSHtot” for “RedOx c/mtSOD”, “the total glutathione level (GSH+GSSG).” for “the cell and mitochondrial SOD activities.”, “resveratrol” for “resveratrol at”, “the extract” for “the active ingredients”, “100 μM,” for “100 μM”, “The total glutathione level was” for “The enzymatic activities were”

[5] = tested on: cell reactive oxygen species (ROSs) in normal human keratinocytes; assay: Mitoread AntiOx cROS: cell ROS production after H2O2 stress
Excerpt: The objective of this study is the characterization of the antioxidant property of a Sanicula europea extract by evaluating the parameters of the redox state after induction of an oxidative stress by hydrogen peroxide (H2O2) in primary cultures of normal human keratinocytes. The Mitosafe® technology makes it possible to explore the antioxidant effects of active agents at the mitochondrial level. This technology consists of the integrated study of mitochondrial functions in living cells by multiplexed measurement of parameters such as cell viability, production of cell and mitochondrial oxygen free radicals, evaluation of antioxidant defenses. These tests in 96-well plates are carried out on primary cultures of human epidermal cells. The Mitoread AntiOx cROS methodology consists of the quantification of the antioxidant activity of the ingredients toward cell reactive oxygen species (ROSs) using a fluorescent label. […] After washing, the cells were co-incubated with the antioxidant reference compound, […] Trolox, or the extracts, at concentrations determined to be non-cytotoxic, in the presence of the pro-oxidizing reference compound, 100 μM H2O2. The cell ROS production was immediately recorded for 60 minutes. The fluorescence is recorded every five minutes using a microplate reader (Varioskan-Thermo). […]

Oc1ccc(C=Cc2cc(O)cc(O)c2)cc1 [resveratrol]
reduction of the overproduction of mitochondrial ROSs induced by H2O2 ([1]; 1 μM, p=0.013): ~1.3 times | increase in the cell SOD activity in response to H2O2 exposure ([2]; 1 μM, p=0.036): ~40% | reduction of the activity of the mitochondrial SOD induced by H2O2 ([3]; 1 μM, p=0.021): ~66% | reduction of the total glutathione level after treatment with H2O2 ([4]; pre-incubation at 1 μM, p=0.006): 94%

OO [H2O2, hydrogen peroxide]
increase in mitochondrial production of ROSs relative to the nontreated cells (factor) ([1]; 100 μM H2O2): 9.4 | increase of the cell ROS production level compared with the nontreated cells ([5]; 100 μM H2O2): 7.4 times | decrease in the cell SOD activity compared with the nontreated cells ([2]; H2O2 100 μM, non-significant trend, p=0.075): ~30% | increase in the mitochondrial SOD activity compared with the nontreated cells ([3]; H2O2 100 μM, p=0.006): ~211% | increase in the total glutathione level compared with the nontreated cells ([4]; H2O2 at 100 μM, p=0.044): ~2.9 times

Cc1c(C)c2c(c(C)c1O)CCC(C)(C(=O)O)O2 (stereo not shown) [Trolox]
reduction of the overproduction of cell ROSs induced by H2O2 ([5]; Trolox at 10 μm, p<0.001): 1.7 times
